Experimental data published in the NIST ThermoML archive (doi:10.1021/acs.jced.6b01013).
Numbers after ± are expanded uncertainties.

Test: xn = mol fraction of the nth substance listed
Details: 100 kPa, Liquid, Pycnometric method

Structure (SMILES) | mass density (293.15 K, x2 = 0.75) | mass density (293.15 K, x2 = 0.8) | mass density (293.15 K, x2 = 0.83) | mass density (303.15 K, x2 = 0.75) | mass density (303.15 K, x2 = 0.8) | mass density (303.15 K, x2 = 0.83) | mass density (313.15 K, x2 = 0.75) | mass density (313.15 K, x2 = 0.8) | mass density (313.15 K, x2 = 0.83) | mass density (323.15 K, x2 = 0.75) | mass density (323.15 K, x2 = 0.8) | mass density (323.15 K, x2 = 0.83) | other results
COc1ccccc1O [2-methoxyphenol] + C[N+](C)(C)CCO.[Cl-] | – | – | – | – | – | – | – | – | – | – | – | – | mass density (293.15 K, x1 = 0.75): 1153.3 ± 4 kg/m3; mass density (293.15 K, x1 = 0.8): 1155.6 ± 4 kg/m3; mass density (293.15 K, x1 = 0.83): 1149.7 ± 4.1 kg/m3; mass density (303.15 K, x1 = 0.75): 1147.5 ± 4 kg/m3; mass density (303.15 K, x1 = 0.8): 1147.7 ± 4 kg/m3; mass density (303.15 K, x1 = 0.83): 1143.4 ± 4.1 kg/m3; mass density (313.15 K, x1 = 0.75): 1141.2 ± 4 kg/m3; mass density (313.15 K, x1 = 0.8): 1140.6 ± 4 kg/m3; mass density (313.15 K, x1 = 0.83): 1136.2 ± 4.1 kg/m3; mass density (323.15 K, x1 = 0.75): 1134.1 ± 4.1 kg/m3; mass density (323.15 K, x1 = 0.8): 1132.4 ± 4.1 kg/m3; mass density (323.15 K, x1 = 0.83): 1128 ± 4.1 kg/m3
CC(=O)OCC[N+](C)(C)C.[Cl-] [acetylcholine chloride] + COc1ccccc1O | 1149.6 ± 4 kg/m3 | 1149.3 ± 4 kg/m3 | 1152.7 ± 4 kg/m3 | 1146.1 ± 4 kg/m3 | 1144.8 ± 4 kg/m3 | 1148.1 ± 4 kg/m3 | 1139.8 ± 4 kg/m3 | 1138.1 ± 4 kg/m3 | 1142.5 ± 4 kg/m3 | 1133.8 ± 4 kg/m3 | 1131.7 ± 4 kg/m3 | 1135.1 ± 4 kg/m3 | –
CCNCC.Cl [diethylammonium chloride] + COc1ccccc1O | 1095.4 ± 4 kg/m3 | 1102.4 ± 4 kg/m3 | 1106.1 ± 4 kg/m3 | 1093.1 ± 4 kg/m3 | 1098.3 ± 4 kg/m3 | 1103.5 ± 4 kg/m3 | 1083.7 ± 4 kg/m3 | 1089.8 ± 4 kg/m3 | 1093.7 ± 4 kg/m3 | 1075.8 ± 4.1 kg/m3 | 1084.1 ± 4 kg/m3 | 1083.5 ± 4 kg/m3 | –
